Source: US7973072B2, “Substituted benzo-condensed cyclohexanone derivatives and the use thereof for medicament production” (Gruenenthal GmbH, priority 2005, dated 2011)

Tests used:
[1] = biological target: T1, human vanilloid receptor 1 (VR1) (Homo sapiens, UniProt Q8NER1); test: FLIPR Ca2+ functional study on human vanilloid receptor 1 (CHO K1 cells transfected with human VR1); type: cell-based; settings: for inhibition at 10 µM: CHO-K1, test compound 10 μM, suppression of Ca2+ current after 100 nM capsaicin, relative to maximum inhibition with 10 μM capsaicin (CP), read-out: VR1 (human) (% inhibition compared to 10 μM CP); for EC50: agonistic action
T1 construct: expressed in transfected cells; host or cells: CHO K1 cells (ECACC), stably transfected
Experimental: Chinese hamster ovary cells (CHO K1 cells, European Collection of Cell Cultures (ECACC), England) are transfected stably with the human vanilloid receptor 1 (VR1) gene or the vanilloid receptor 1 (VR1) gene of the rat. For functional studies, these cells are plated out onto poly-D-lysine-coated black 96-well plates with a clear bottom (BD Biosciences, Heidelberg, Germany) in a density of 25 000 cells/well. The cells are incubated overnight at 37° C. and 5% CO2 in culture medium (Ham's Nutrient Mixture F12, Gibco Invitrogen GmbH, Karlsruhe, Germany) with 10% by volume of FBS (fetal bovine serum, Gibco Invitrogen GmbH, Karlsruhe, Germany), and 18 μg/ml of L-proline (Gibco Invitrogen GmbH, Karlsruhe, Germany). The next day, the cells are laden with 2 μM Fluo-4 and 0.01% by volume of Pluronic F127 (Molecular Probes Europe BV, Leiden, The Netherlands) in HBSS buffer (Hank's buffered saline solution, Gibco Invitrogen GmbH, Karlsruhe, Germany) at 37° C. for 30 min. Subsequently, the plates are washed 3 times with HBSS buffer and, after a further incubation of 15 minutes at room temperature, used for Ca^2+ measurement in the FLIPR assay. The Ca^2+-dependent fluorescence is measured before and after addition of substances λex=488 nm, λem=540 nm). The quantification is effected by measuring the highest fluorescence intensity (FC, fluorescence counts) over the time.
The FLIPR protocol consists of 2 substance additions. First, the compounds to be tested (10 μM) are pipetted onto the cells obtained according to Ia or Ib and the Ca^2+ current is compared with the control (capsaicin 10 μM). This gives rise to the result in % activation based on the Ca^2+ signal after addition of 10 μM capsaicin (CP). After incubation for 5 minutes, 100 nM capsaicin is applied and the current of Ca^2+ is likewise determined.
Desensitizing agonists and antagonists lead to a suppression in the Ca^2+ current. % inhibition is calculated compared to the maximum achievable inhibition with 10 μM capsaicin.
Triple determinations (n=3) are performed and they are repeated in at least 3 independent experiments (N=4).

[2] = biological target: T2, vanilloid receptor 1 (VR1/TRPV1) of the rat (Rattus norvegicus, UniProt O35433); test: FLIPR Ca2+ functional study on rat vanilloid receptor 1 (rat dorsal root ganglia cells or CHO K1 cells transfected with rat VR1); type: cell-based; settings: for activation at 10 µM / inhibition at 10 µM: CHO-K1, test compound 10 μM; for activation at 10 µM: % activation based on Ca2+ signal after 10 μM capsaicin (CP), read-out: VR1 (rat) (% stimulation compared to 10 μM CP); for inhibition at 10 µM: suppression of Ca2+ current after 100 nM capsaicin, relative to maximum inhibition with 10 μM capsaicin (CP), read-out: VR1 (rat) (% inhibition compared to 10 μM CP); for EC50: agonistic action
T2 construct: host or cells: rat dorsal root ganglia primary cells (Ia) or CHO K1 cells stably transfected with the rat VR1 gene (Ib)
Experimental: The agonistic or antagonistic action of the substances to be studied on the vanilloid receptor 1 (VR1/TRPV1) of the rat species can be determined with the following assay. In this assay, the Ca^2+ current through the receptor channel is quantified with the aid of a Ca^2+-sensitive dye (Fluo-4 type, Molecular Probes Europe BV, Leiden the Netherlands) in a fluorescent imaging plate reader (FLIPR, Molecular Devices, Sunnyvale, USA).
Complete medium: 50 ml HAMS F12 Nutrient Mixture (Gibco Invitrogen GmbH, Karlsruhe, Germany) with
10% by volume of FCS (fetal calf serum, Gibco Invitrogen GmbH, Karlsruhe, Germany, heat-inactivated);
2 mM L-glutamine (Sigma, Munich, Germany);
1% by weight of AA solution (antibiotic/antimycotic solution, PAA, Pasching, Austria) and 25 ng/ml of NGF medium (2.5 S, Gibco Invitrogen GmbH, Karlsruhe, Germany)
Cell culture plate: poly-D-lysine-coated, black 96-hole plates with a clear bottom (96 well black/clear plate, BD Biosciences, Heidelberg, Germany) are additionally coated with laminin (Gibco Invitrogen GmbH, Karlsruhe, Germany) by diluting laminin to a concentration of 100 μg/ml with PBS (Ca—Mg-free PBS, Gibco Invitrogen GmbH, Karlsruhe, Germany). Aliquots having a concentration of 100 μg/ml of laminin are withdrawn and stored at −20° C. The aliquots are diluted with PBS in a ratio of 1:10 to 10 μg/ml of laminin and in each case 50 μl of the solution are pipetted into a well of the cell culture plate. The cell culture plates are incubated at 37° C. for at least two hours, the supernatant solution is removed by suction and the wells are each washed twice with PBS. The coated cell culture plates are stored with supernatant PBS which is not removed until directly before the application of the cells.
The spinal column is removed from beheaded rats and placed directly into cold HBSS buffer (Hank's buffered saline solution, Gibco Invitrogen GmbH, Karlsruhe, Germany), i.e. placed in an ice bath, which has been admixed with 1% by volume of an AA solution (antibiotic/antimycotic solution, PAA, Pasching, Austria). The spinal column is severed longitudinally and removed from the spinal canal together with fasciae. Subsequently, the dorsal root ganglia (DRGs) are removed and in turn stored in cold HBSS buffer admixed with 1% by volume of an […]. The DRGs freed completely of blood residues and spinal nerves are in each case transferred to 500 μl of cold type 2 collagenase (PAA, Pasching, Austria) and incubated at 37° C. for 35 minutes. After addition of 2.5% by volume of trypsin (PAA, Pasching, Austria), incubation is continued at 37° C. for a further 10 minutes. After complete incubation, the enzyme solution is cautiously pipetted off and the remaining DRGs are each admixed with 500 μl of complete medium.
The DRGs are each suspended repeatedly, drawn through cannulas No. 1, No. 12 and No. 16 by means of a syringe and transferred to 50 ml Falcon tubes which are made up to 15 ml with complete medium. The contents of each Falcon tube are in each case filtered through a 70 μm Falcon filter insert and centrifuged at 1200 revolutions and room temperature for 10 minutes. The resulting pellet is in each case taken up in 250 μl of complete medium and the cell count is determined.
The number of cells in the suspension is adjusted to 3 times 10^5 per ml and in each case 150 μl of this suspension are added to one well of the cell culture plates coated as described above. In the incubator, the plates are left to stand at 37° C., 5% by volume of CO2 and 95% relative air humidity for two to three days.
Subsequently, the cells are laden with 2 μM Fluo-4 and 0.01% by volume of Pluronic F127 (Molecular Probes Europe BV, Leiden, the Netherlands) in HBSS buffer (Hank's buffered saline solution, Gibco Invitrogen GmbH, Karlsruhe, Germany) at 37° C. for 30 min, washed 3× with HBSS buffer and, after a further incubation of 15 minutes, used in the FLIPR assay at room temperature for Ca^2+ measurement. […]

T1 sequence (Q8NER1 whole entry): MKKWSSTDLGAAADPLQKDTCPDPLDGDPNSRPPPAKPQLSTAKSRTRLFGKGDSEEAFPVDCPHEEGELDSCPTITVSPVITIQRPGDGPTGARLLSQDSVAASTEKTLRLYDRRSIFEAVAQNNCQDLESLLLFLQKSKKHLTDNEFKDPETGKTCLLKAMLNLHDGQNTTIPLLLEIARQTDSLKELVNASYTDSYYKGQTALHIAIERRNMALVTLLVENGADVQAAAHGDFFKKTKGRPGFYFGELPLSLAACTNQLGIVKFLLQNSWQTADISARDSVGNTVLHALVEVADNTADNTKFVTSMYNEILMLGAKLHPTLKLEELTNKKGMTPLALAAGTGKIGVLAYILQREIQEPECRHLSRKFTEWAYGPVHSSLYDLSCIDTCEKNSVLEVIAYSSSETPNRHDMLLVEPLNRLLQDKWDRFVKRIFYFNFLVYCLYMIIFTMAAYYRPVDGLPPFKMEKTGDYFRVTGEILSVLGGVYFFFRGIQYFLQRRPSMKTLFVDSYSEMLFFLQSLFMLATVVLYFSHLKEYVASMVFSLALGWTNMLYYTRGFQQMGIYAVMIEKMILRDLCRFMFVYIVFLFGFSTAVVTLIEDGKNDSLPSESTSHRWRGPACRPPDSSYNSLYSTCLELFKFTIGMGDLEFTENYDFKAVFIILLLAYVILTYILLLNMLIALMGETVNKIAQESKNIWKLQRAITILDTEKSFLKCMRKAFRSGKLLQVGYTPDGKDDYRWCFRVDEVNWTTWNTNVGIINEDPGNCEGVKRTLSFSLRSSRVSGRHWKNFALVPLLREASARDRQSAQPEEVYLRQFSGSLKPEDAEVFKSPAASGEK
T2 sequence (O35433 whole entry): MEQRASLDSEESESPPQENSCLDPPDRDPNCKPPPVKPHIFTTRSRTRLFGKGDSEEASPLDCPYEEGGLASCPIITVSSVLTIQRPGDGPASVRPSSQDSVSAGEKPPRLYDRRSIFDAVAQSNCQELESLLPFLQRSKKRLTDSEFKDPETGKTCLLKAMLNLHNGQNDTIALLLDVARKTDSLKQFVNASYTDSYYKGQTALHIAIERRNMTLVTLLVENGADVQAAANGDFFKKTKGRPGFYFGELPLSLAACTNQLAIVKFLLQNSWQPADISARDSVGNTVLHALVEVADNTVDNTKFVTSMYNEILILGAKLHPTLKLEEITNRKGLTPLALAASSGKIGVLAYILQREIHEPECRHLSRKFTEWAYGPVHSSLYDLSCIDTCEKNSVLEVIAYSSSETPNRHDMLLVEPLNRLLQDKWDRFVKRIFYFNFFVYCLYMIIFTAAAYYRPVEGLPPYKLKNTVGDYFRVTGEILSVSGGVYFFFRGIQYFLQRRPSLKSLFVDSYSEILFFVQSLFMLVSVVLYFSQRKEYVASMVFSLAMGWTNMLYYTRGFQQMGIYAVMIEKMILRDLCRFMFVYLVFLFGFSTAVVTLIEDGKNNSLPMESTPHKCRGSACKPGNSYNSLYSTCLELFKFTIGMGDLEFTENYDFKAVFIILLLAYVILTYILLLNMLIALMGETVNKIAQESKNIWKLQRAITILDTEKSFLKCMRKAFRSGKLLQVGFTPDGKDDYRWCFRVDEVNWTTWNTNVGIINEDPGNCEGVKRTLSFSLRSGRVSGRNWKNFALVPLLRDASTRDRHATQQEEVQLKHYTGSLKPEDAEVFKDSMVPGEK

inhibition at 10 µM [1] [%] | EC50 ([1]; FLIPR) [µM] | activation at 10 µM [2] [%] | inhibition at 10 µM [2] [%] | EC50 ([2]; FLIPR) [µM] | melting point [°C] | IC50 ([1]; FLIPR, antagonistic action) [µM] | IC50 ([2]; FLIPR, antagonistic action) [µM] | Structure (SMILES)
59.2 | 13.4 | 11.8 | 61.5 | 20.3 | 65 to 73 | – | – | Cc1ccc2c(c1)[S+]([O-])CC(COC(=O)Nc1ccccc1)(COC(=O)Nc1ccccc1)C2=O (stereo not drawn) [Example Compound 47, 3,3-bis(phenylcarbamoyloxymethyl)-7-methyl-1-oxo-1λ^4-thiochroman-4-one]
81.1 | 1.85 | 64.9 | 88.8 | 3.4 | 85 to 95 | – | – | Cc1ccc2c(c1)S(=O)(=O)CC(COC(=O)Nc1ccccc1)(COC(=O)Nc1ccccc1)C2=O [Example Compound 48, 3,3-bis(phenylcarbamoyloxymethyl)-7-methyl-1,1-dioxo-1λ^6-thiochroman-4-one]
0 | – | 0 | 99.9 | – | 78 to 85 | > 20 | 5.7 | CC(C)(C)c1ccc(NC(=O)OCC2(COC(=O)Nc3ccc(C(C)(C)C)cc3)CSc3ccccc3C2=O)cc1 [Example Compound 50, 3,3-bis(4-tert-butylphenylcarbamoyloxymethyl)thiochroman-4-one]
